These results are taken from US20260248961A1, “UTILIZATION OF A HIBERNATION-LIKE STATE IN NEUROLOGICAL DISEASES” (OKINAWA INSTITUTE OF SCIENCE AND TECHNOLOGY SCHOOL …, priority 2022, published 2026).

The structures appear in SMILES notation. “Also recorded” adds a separate entry of the source.

One data set relates to contextual fear memory. In words: Contextual fear conditioning after QIH. Format: in vivo, mice. The conditions noted are these: after 48 hours of QIH and 72 hours recovery. On the procedure: (§1) Two to three weeks after surgery, mice were first habituated to intraperitoneal (i.p.) injection of saline four times (once per day). On the day of QIH induction, mice were allowed to be habituated to the experimental room (15C) for 1 hour. A dose of 1 mg/kg of clozapine N-oxide (CNO) was i.p. injected to induce QIH in the same experimental room under darkness and low ambient temperatures of about 18-19 degrees celsius. Mice were allowed to stay in the room for 48 hours, and then returned to the housing colony once the QIH state had wore off.
Mice were first handled by an experimenter for at least 5 days to reduce their anxiety. During conditioning, the animals were first allowed to explore the context A (30.5L×24.1W×21H cm, metal grid floor, ethanol odor, white light, white noise) and then received 5 foot shocks (0.75 mA for 2 seconds with 30 seconds inter-shock-intervals). Next day, the same animals returned to the shocked context A and a novel neutral context B (30.5L×24.1W×21H cm, plastic flat floor, acetic acid odor, NIR light under darkness, triangle roof). After QIH induction and recovery, the mice were retested both in contexts A and B.

Another data set relates to pilocarpine model of TLE. Briefly: SRS onset monitoring after QIH induction during the latent period, pilocarpine model of TLE. In kind it is in vivo, mice. On the procedure:
as §1
(§2) On the day of seizure injection, mice were first i.p. injected with 0.07 mL of scopolamine solution (0.5 mg/mL) to prevent adverse peripheral side effects. Thirty minutes later, 280 mg/kg pilocarpine solution was i.p. injected to produce acute seizure. After the mice reach stage 3, 4, or 5 on the Racine scale of behavioral seizures (modified version below), the development of status epilepticus (SE) is confirmed as a continuous state of seizures characterised by a behavioral expression such as a prominent head tic, rigidity of body and tail, and immobility. One to 3 hours after the initial onset of SE, 0.04 mL of Midazolam (5 mg/mL) was i.p. injected to attenuate the seizures.
Animals are observed by trained personnel on a daily basis, starting with the first day after QIH exit. The monitoring process is performed while animals are in their homecages, in the experimental room. Observation is conducted for one hour per mouse per day using the scale above (table 1) to identify the severity of the behavioral seizures as they occur. For each mouse, the day on which the first seizure is observed, as well as the perceived severity, are recorded.

Data set [1] relates to Q-neurons in the anteroventral periventricular nucleus (AVPe). Briefly: QIH induction by CNO with body temperature and extracellular tetrode recording. In kind it is in vivo, mice. On the procedure:
All animals were single-housed prior to surgery. During surgery, mice were anesthetized with MMB (a cocktail of medetomidine, midazolam, and butorphanol) and 500 nL of AAV-hSyn-DIO-hM3D(Gq)-mCherry vector was infused through a small craniotomy above AVPe (ML ±0.3; AP +0.38; DV −5.0) at a rate of 50 nL per minute with a micropump syringe (World Precision Instrument). After infusion, the 35 G needle stayed at the infusion site for at least 15 minutes to allow diffusion of the vector. After surgery, animals were carefully monitored to full recovery. For LFP and single/multi-unit recording, we implanted a microdrive consisting of 9 independently adjustable tetrodes (14 um diameter, nichrome wire, gold plated to 200-300 kΩ). In the 2-3 weeks after surgery the depth of the tetrodes were slowly and manually adjusted until stable recording of LFP signals or separatable spike clusters was observed. All adjustments were conducted in a highly familiar small plastic bucket located in the recording room while the animals moved and behaved freely.
as §1
All data were acquired using 32-channel Digital Lynx 4SX acquisition system (Neuralynx). The local field potential (LFP) was filtered at 2-9000 Hz. Spike waveforms were filtered between 0.6-6 kHz and those above a peak threshold of […] were time-stamped and digitized at 32,556 Hz. Spikes were manually sorted using SpikeSort3D software (Neuralynx). In short, waveform amplitudes of all spikes recorded from three channels were projected to three dimensional space and putative units were clustered. This procedure was repeated for all combinations of channels and also for energy of spikes. […] A low-pass filter with a cut-off frequency equal to half the target sampling frequency was applied to the LFP prior to downsampling to prevent signal distortion.

The conditions of data set [2]: over four thousand adult patients (NPL17); cited from earlier work.
For data set [3] the following is noted: applied on the epileptogenic zone; even after decades of monitoring (NPL22); cited from earlier work.
Data set [4] can be described thus: Seizure induction with pilocarpine. Format: in vivo, mice. The procedure:
as §2

Consider `C[N+]1([O-])CCN(C2=Nc3cc(Cl)ccc3Nc3ccccc32)CC1` [CNO, clozapine-N-oxide], for which the “freezing behavior in Post-Test A” value in the data set on contextual fear memory (vs control animals without induction, FIG. 3B) was “comparable level of freezing behavior”. Further, the “freezing in Post-Test B (neutral context)” value in the data set on contextual fear memory (all groups) is reported as “negligible degree of freezing”. In addition, the “SRS onset (duration of the latent phase)” value with pilocarpine model of TLE (QIH induced 24 h after midazolam, 48 h QIH, vs control animals in QIH chamber without induction, FIG. 2B) is recorded as “drastic delay in the SRS onset; also recorded: significantly delayed”. For the same compound, the “severity of SRS (Racine scale)” value in the data set with pilocarpine model of TLE (QIH vs no QIH during the latent phase, FIG. 2C) was “no difference in the severity in the SRS”. The “time of SRS after induction of the hibernation-like state” value in the data set with pilocarpine model of TLE (as opposed to 1-2 weeks in the rodent model) was “several months”. Also, the “body temperature during QIH” value in data set [1] (after CNO injection (1 mg/kg i.p.), Qrfp-iCre mice with AAV-hSyn-DIO-hM3D(Gq)-mCherry in AVPe, FIG. 1A) is given as “reduction in their body temperature”. In data set [1] (after QIH induction, FIG. 1C), the “spike activity of individual pyramidal cells in the dorsal CA1” value is on record as “rapid reduction in their spike activity”. Also, the “power spectral density of LFP in the dorsal CA1” value in data set [1] (during QIH, FIG. 1B) was “substantial reduction in broad frequency ranges”. In addition, the “time mice stay under QIH after injection” value in data set [1] (intraperitoneal CNO, spontaneous awakening and rewarming afterwards) was determined as 48 h. For the same compound, the “multi-unit activity recorded from the hypothalamus” value in data set [1] (upon QIH induction, FIG. 1D) is recorded as “reduced upon induction of QIH”.
As for `CC[C@@H](C(N)=O)N1CCCC1=O` [Levetiracetam], the “rate of psychiatric and behavioral side effects among the medications” value in data set [2] is recorded as “highest rates of side effects”.
Take `NS(=O)(=O)Cc1noc2ccccc12` [Zonisamide]: the “rate of psychiatric and behavioral side effects among the medications” value in data set [2] is “highest rates of side effects”.
Consider `CCCl` [ethyl chloride], for which the seizure outcome in data set [3] is listed as “complete remission from seizures”.
As for `CC[C@@H]1C(=O)OC[C@@H]1Cc1cncn1C` [Pilocarpine, pilocarpine], in data set [4] (280 mg/kg i.p.), the “time to seizures after injection” value was “thirty”. In addition, the “duration of prolonged seizure (status epilepticus)” value in data set [4] (before termination with an anticonvulsant drug) is recorded as “about two”.
